For nine molecules, IC50 and EC50 results are on record in US8119628B2, “Pyrrolidine fused indolobenzadiazepine HCV NS5B inhibitors” (Bristol-Myers Squibb Company, priority 2008, dated 2012).

Test [1] deals with T1, HCV NS5B (Hepatitis C virus genotype 1b, UniProt Q9WMX2).
T1 construct: The protein was expressed with an 18 amino acid C-terminal truncation to enhance the solubility; made in house; host or cells: E. coli BL21(DE3)
Nature of the test: Modified HCV NS5B RdRp enzyme assay (preincubation protocol). It counts as biochemical. Particulars: HCV NS5B RdRp genotype 1b. As to the method: HCV NS5B RdRp cloning, expression, and purification. The cDNA encoding the NS5B protein of HCV, genotype 1b, was cloned into the pET21a expression vector. The protein was expressed with an 18 amino acid C-terminal truncation to enhance the solubility. The E. coli competent cell line BL21(DE3) was used for expression of the protein. Cultures were grown at 37° C. for ˜4 hours until the cultures reached an optical density of 2.0 at 600 nm. The cultures were cooled to 20° C. and induced with 1 mM IPTG. Fresh ampicillin was added to a final concentration of 50 μg/ml and the cells were grown overnight at 20° C.
Cell pellets (3 L) were lysed for purification to yield 15-24 […] of purified NS5B. The lysis buffer consisted of 20 mM Tris-HCl, pH 7.4, 500 mM NaCl, 0.5% triton X-100, 1 mM DTT, 1 mM EDTA, 20% glycerol, 0.5 mg/ml lysozyme, 10 mM MgCl2, 15 ug/ml deoxyribonuclease I, and Complete TM protease inhibitor tablets (Roche). After addition of the lysis buffer, frozen cell pellets were resuspended using a tissue homogenizer. To reduce the viscosity of the sample, aliquots of the lysate were sonicated on ice using a microtip attached to a Branson sonicator. The sonicated lysate was centrifuged at 100,000×g for 1 hr at 4° C. and filtered through a 0.2 μm filter unit (Corning).
The protein was purified using three sequential chromatography steps: Heparin sepharose CL-6B, polyU sepharose 4B, and Hitrap SP sepharose (Pharmacia). The chromatography buffers were identical to the lysis buffer but contained no lysozyme, deoxyribonuclease I, MgCl2 or protease inhibitor and the NaCl concentration of the buffer was adjusted according to the requirements for charging the protein onto the column. Each column was eluted with a NaCl gradient which varied in length from 5-50 column volumes depending on the column type. After the final chromatography step, the resulting purity of the enzyme is >90% based on SDS-PAGE analysis. The enzyme was aliquoted and stored at −80° C.
Standard HCV NS5B RdRp enzyme assay. HCV RdRp genotype 1b assays were run in a final volume of 60 μl in 96 well plates (Costar 3912). The assay buffer is composed of 20 mM Hepes, pH 7.5, 2.5 mM KCl, 2.5 mM MgCl2, 1 mM DTT, 1.6 U RNAse inhibitor (Promega N2515), 0.1 mg/ml BSA (Promega R3961), and 2% glycerol. All compounds were serially diluted (3-fold) in DMSO and diluted further in water such that the final concentration of DMSO in the assay was 2%. HCV RdRp genotype 1b enzyme was used at a final concentration of 28 nM. A polyA template was used at 6 nM, and a biotinylated oligo-dT12 primer was used at 180 nM final concentration. Template was obtained commercially (Amersham 27-4110). Biotinylated primer was prepared by Sigma Genosys. 3H-UTP was used at 0.6 μCi (0.29 μM total UTP). Reactions were initiated by the addition of enzyme, incubated at 30° C. for 60 min, and stopped by adding 25 μl of 50 mM EDTA containing SPA beads (4 μg/μl, Amersham RPNQ 0007). Plates were read on a Packard Top Count NXT after >1 hr incubation at room temperature.
Modified HCV NS5B RdRp enzyme assay. A modified enzyme assay was performed essentially as described for the standard enzyme assay except for the following: The biotinylated oligo dTl2 primer was precaptured on streptavidin-coated SPA beads by mixing primer and beads in assay buffer and incubating at room temperature for one hour. Unbound primer was removed after centrifugation. The primer-bound beads were resuspended in 20 mM Hepes buffer, pH 7.5 and used in the assay at final concentrations of 20 nM primer and […] beads. Order of addition in the assay: enzyme (14 nM) was added to diluted compound followed by the addition of a mixture of template (0.2 nM), 3H-UTP (0.6 μCi, 0.29 μM), and primer-bound beads, to initiate the reaction; concentrations given are final. Reactions were allowed to proceed for 4 hours at 30° C.
IC50 values for compounds were determined using seven different. […]

Test [2] has as its system HCV replicon cells. Nature of the test: HCV FRET assay in HCV replicon cells. In kind it is cell-based. Particulars: Hepatitis C virus. An excerpt: FRET Assay Preparation. To perform the HCV FRET screening assay, 96-well cell culture plates were used. The FRET peptide (Anaspec, Inc.) (Taliani et al., Anal. Biochem. 1996, 240, 60-67) contains a fluorescence donor, EDANS, near one end of the peptide and an acceptor, DABCYL, near the other end. The fluorescence of the peptide is quenched by […] resonance energy transfer (RET) between the donor and the acceptor, but as the NS3 protease cleaves the peptide the products are released from RET quenching and the fluorescence of the donor becomes apparent. The assay reagent was made as follows: 5× cell Luciferase cell culture lysis reagent from Promega (#E153A) diluted to 1× with dH2O, NaCl added to 150 mM final, the FRET peptide diluted to 20 uM final from a 2 mM stock.
To prepare plates, HCV replicon cells, with or without a Renilla luciferase reporter gene, were trypsinized and placed into each well of a 96-well plate with titrated test compounds added in columns 3 through 12; columns 1 and 2 contained a control compound (HCV protease inhibitor), and the bottom row contained cells without compound. The plates were then placed in a CO2 incubator at 37° C.
Assays. Subsequent to addition of the test compounds described above (FRET Assay Preparation), at various times the plate was removed and Alamar blue solution (Trek Diagnostics, #00-100) was added per well as a measure of cellular toxicity. After reading in a Cytoflour 4000 instrument (PE Biosystems), plates were rinsed with PBS and then used for FRET assay by the addition of 30 ul of the FRET peptide assay reagent described above (FRET Assay Preparation) per well. The plate was then placed into the Cytoflour 4000 instrument which had been set to 340 excite/490 emission, automatic mode for 20 cycles and the plate read in a kinetic mode. Typically, the signal to noise using an endpoint analysis after the reads was at least three-fold. Alternatively, after Alamar blue reading, plates were rinsed with PBS, 50 ul of DMEM (high glucose) without phenol red was added and plates were then used for luciferase assay using the Promega Dual-Glo Luciferase Assay System.
Compound analysis was determined by quantification of the relative HCV replicon inhibition and the relative cytotoxicity values. To calculate cytoxicity values, the average Alamar Blue fluorescence signals from the control wells were set as 100% non-toxic. The individual signals in each of the compound test wells were then divided by the average control signal and multiplied by 100% to determine […]. To calculate the HCV replicon inhibition values, an average background value was obtained from the two wells containing the highest amount of HCV protease inhibitor at the end of the assay period. These numbers were similar to those obtained from naïve Huh-7 cells.
The background numbers were then subtracted from the average signal obtained from the control wells and this number was used as 100% activity. The individual signals in each of the compound test wells were then divided by the averaged control values after background subtraction and multiplied by 100% to determine percent activity. EC50 values for a protease inhibitor titration were calculated as the concentration which caused a 50% reduction in FRET or luciferase activity. The two numbers generated for the compound plate, percent cytoxicity and percent activity were used to determine compounds of interest for further analysis.

SMILES strings stand for the structures. pEC50, pIC50: −log10 of the molar value.

T1 sequence (Q9WMX2 2420-2992): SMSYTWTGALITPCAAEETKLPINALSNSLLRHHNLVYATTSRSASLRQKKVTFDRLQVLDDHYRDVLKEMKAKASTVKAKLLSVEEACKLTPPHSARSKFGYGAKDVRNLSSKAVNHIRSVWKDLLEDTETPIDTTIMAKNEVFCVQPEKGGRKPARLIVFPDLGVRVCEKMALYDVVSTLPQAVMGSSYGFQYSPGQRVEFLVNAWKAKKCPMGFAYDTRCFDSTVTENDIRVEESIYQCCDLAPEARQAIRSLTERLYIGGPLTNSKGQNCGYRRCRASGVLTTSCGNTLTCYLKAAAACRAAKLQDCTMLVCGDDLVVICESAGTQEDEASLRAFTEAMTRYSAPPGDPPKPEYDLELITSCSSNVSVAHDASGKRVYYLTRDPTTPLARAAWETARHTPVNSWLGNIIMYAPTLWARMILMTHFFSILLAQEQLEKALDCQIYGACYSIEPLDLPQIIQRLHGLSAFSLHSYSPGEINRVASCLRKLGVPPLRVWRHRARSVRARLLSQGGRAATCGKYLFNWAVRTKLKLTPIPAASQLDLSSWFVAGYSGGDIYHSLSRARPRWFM

With `COc1ccc2c(c1)C1CN(C)CC1(C(=O)N1C[C@@H](C)O[C@@H](C)C1)Cn1c-2c(C2CCCCC2)c2ccc(C(=O)NS(=O)(=O)N(C)C)cc21` (mixture of isomers) [Example 3, rac-(3aR,14bR)-10-Cyclohexyl-3a-(((2S,6R)-2,6-dimethyl-4-morpholinyl)carbonyl)-N-(dimethylsulfamoyl)-13-methoxy-2-methyl-1,2,3,3a,4,14b-hexahydroindolo[2,1-a]pyrrolo[3,4-d][2]benzazepine-7-carboxamide], in test [1] (reported as class), the negative logarithm of the IC50 (pIC50) is 6.30 to 7.70. Also, the pEC50 in test [2] (reported as class) is 6.30 to 7.70.

Regarding `COc1ccc2c(c1)C1CN(C(C)=O)CC1(C(=O)N(C)C)Cn1c-2c(C2CCCCC2)c2ccc(C(=O)NS(=O)(=O)N(C)C)cc21` (racemic) [Example 9, rac-(3aR,14bR)-2-acetyl-10-cyclohexyl-N^7-(dimethylsulfamoyl)-13-methoxy-N^3a,N^3a-dimethyl-1,2,3,14b-tetrahydroindolo[2,1-a]pyrrolo[3,4-d][2]benzazepine-3a,7(4H)-dicarboxamide], the pIC50 in test [1] (reported as class) is 6.30 to 7.70. Moreover, the pEC50 in test [2] (reported as class) is 6.30 to 7.70.

As for `COc1ccc2c(c1)C1CN(C(=O)CN(C)C)CC1(C(=O)N(C)C)Cn1c-2c(C2CCCCC2)c2ccc(C(=O)NS(=O)(=O)N(C)C)cc21` (racemic) [Example 14, rac-(3aR,14bR)-10-Cyclohexyl-2-(N,N-dimethylglycyl)-N^7-(dimethylsulfamoyl)-13-methoxy-N^3a,N^3a-dimethyl-1,2,3,14b-tetrahydroindolo[2,1-a]pyrrolo[3,4-d][2]benzazepine-3a,7(4H)-dicarboxamide], the pIC50 in test [1] was 7.29. The pEC50 in test [2] was 7.33.

As for `COc1ccc2c(c1)C1CNCC1(C(=O)N(C)C)Cn1c-2c(C2CCCCC2)c2ccc(C(=O)NS(=O)(=O)N(C)C)cc21` (racemic) [Example 7, rac-(3aR,14bR)-10-cyclohexyl-N^7-(dimethylsulfamoyl)-13-methoxy-N^3a,N^3a-dimethyl-1,2,3,14b-tetrahydroindolo[2,1-a]pyrrolo[3,4-d][2]benzazepine-3a,7(4H)-dicarboxamide], the pIC50 in test [1] was 7.39. For the same molecule, the negative-log EC50 (pEC50) in test [2] is 7.66.

For `COc1ccc2c(c1)C1CN(C(=O)C(=O)N(C)C)CC1(C(=O)N(C)C)Cn1c-2c(C2CCCCC2)c2ccc(C(=O)NS(=O)(=O)N(C)C)cc21` (racemic) [Example 15, rac-(3aR,14bR)-10-Cyclohexyl-2-((dimethylamino)(oxo)acetyl)-N^7-(dimethylsulfamoyl)-13-methoxy-N^3a,N^3a-dimethyl-1,2,3,14b-tetrahydroindolo[2,1-a]pyrrolo[3,4-d][2]benzazepine-3a,7(4H)-dicarboxamide], the negative-log IC50 (pIC50) in test [1] (reported as class) is 6.30 to 7.70. In test [2] (reported as class), the pEC50 was 6.30 to 7.70.

With `COc1ccc2c(c1)C1CN(Cc3ccccc3)CC1(C(=O)N(C)C)Cn1c-2c(C2CCCCC2)c2ccc(C(=O)NS(=O)(=O)N(C)C)cc21` (racemic) [Example 6, rac-(3aR,14bR)-2-benzyl-10-cyclohexyl-N^7-(dimethylsulfamoyl)-13-methoxy-N^3a,N^3a-dimethyl-1,2,3,14b-tetrahydroindolo[2,1-a]pyrrolo[3,4-d][2]benzazepine-3a,7(4H)-dicarboxamide], in test [1] (reported as class), the pIC50 was 6.30 to 7.70. This molecule also gave a pEC50 in test [2] (reported as class) of 6.30 to 7.70.

With `COc1ccc2c(c1)C1CNCC1(C(=O)N1C[C@@H](C)O[C@@H](C)C1)Cn1c-2c(C2CCCCC2)c2ccc(C(=O)NS(=O)(=O)N(C)C)cc21` (mixture of isomers) [Example 2, rac-(3aR,14bR)-10-cyclohexyl-3a-(((2S,6R)-2,6-dimethyl-4-morpholinyl)carbonyl)-N-(dimethylsulfamoyl)-13-methoxy-1,2,3,3a,4,14b-hexahydroindolo[2,1-a]pyrrolo[3,4-d][2]benzazepine-7-carboxamide], the pIC50 in test [1] (reported as class) is 6.30 to 7.70. The same molecule gave a negative-log EC50 (pEC50) in test [2] (reported as class) of 6.30 to 7.70.

Take `COc1ccc2c(c1)C1CN(C(=O)N(C)C)CC1(C(=O)N1C[C@@H](C)O[C@@H](C)C1)Cn1c-2c(C2CCCCC2)c2ccc(C(=O)NS(=O)(=O)N(C)C)cc21` (mixture of isomers) [Example 11, rac-(3aR,14bR)-10-cyclohexyl-3a-(((2S,6R)-2,6-dimethyl-4-morpholinyl)carbonyl)-N^7-(dimethylsulfamoyl)-13-methoxy-N^2,N^2-dimethyl-1,3a,4,14b-tetrahydroindolo[2,1-c]pyrrolo[3,4-d][2]benzazepine-2,7(3H)-dicarboxamide]: the negative-log IC50 (pIC50) in test [1] (reported as class) was 6.30 to 7.70. In test [2] (reported as class), this molecule had a negative logarithm of the EC50 (pEC50) of 6.30 to 7.70.

Molecule `COc1ccc2c(c1)C1CN(C)CC1(C(=O)N(C)C)Cn1c-2c(C2CCCCC2)c2ccc(C(=O)NS(=O)(=O)N(C)C)cc21` (racemic) [Example 10, rac-(3aR,14bR)-10-Cyclohexyl-N^7-(dimethylsulfamoyl)-13-methoxy-N^3a,N^3a,2-trimethyl-1,2,3,14b-tetrahydroindolo[2,1-a]pyrrolo[3,4-d][2]benzazepine-3a,7(4H)-dicarboxamide] gave a pIC50 in test [1] of 7.43. The molecule also showed a negative logarithm of the EC50 (pEC50) in test [2] of 7.59.
